From patent US8906967B2 (priority 2007, dated 2014)
Where two headings read alike, the source gives them in different places.

Test system: Clostridium perfringens ATCC 13124
Assay type: cell-based
Settings: 37° C., culture broth

CC1=C2CC[C@@H](C)[C@H]2[C@H]2[C@@H](CC1)C2(C)C [(+) ledene]
growth of Clostridium perfringens (1.2 ppm sesquiterpene): − | growth of Clostridium perfringens (2 ppm sesquiterpene): − | growth of Clostridium perfringens (100 ppm sesquiterpene): −

C[C@@H]1CC[C@@H]2[C@@H]1[C@H]1[C@@H](CC[C@]2(C)O)C1(C)C [(−) epiglobulol]
growth of Clostridium perfringens (0.5 ppm sesquiterpene): + | growth of Clostridium perfringens (2 ppm sesquiterpene): + | growth of Clostridium perfringens (10 ppm sesquiterpene): − | growth of Clostridium perfringens (100 ppm sesquiterpene): −

C[C@@H]1CC[C@@H]2[C@H](C3=C1CC[C@H]3C)C2(C)C [(−) iso-ledene]
growth of Clostridium perfringens (0.5 ppm sesquiterpene): + | growth of Clostridium perfringens (100 ppm sesquiterpene): −

C=C1CC[C@@H]2[C@H]([C@@H]3[C@H](C)CC[C@@H]13)C2(C)C [Aromadendrene]
growth of Clostridium perfringens (0.5 ppm sesquiterpene): + | growth of Clostridium perfringens (100 ppm sesquiterpene): −

C[C@@H]1CC[C@H]2C(C)(C)[C@H]3C[C@@]12CC[C@@]3(C)O [Cedrol]
growth of Clostridium perfringens (2 ppm sesquiterpene): + | growth of Clostridium perfringens (10 ppm sesquiterpene): −

CC(C)=CCCC(C)=CCCC(C)=CC=O [Farnesal]
growth of Clostridium perfringens (2 ppm sesquiterpene): +

CC(C)=C1C/C=C(\C)CC/C=C(\C)CC1=O [Germacrone]
growth of Clostridium perfringens (0.5 ppm sesquiterpene): + | growth of Clostridium perfringens (6 ppm sesquiterpene): + | growth of Clostridium perfringens (30 ppm sesquiterpene): − | growth of Clostridium perfringens (100 ppm sesquiterpene): −

C=C1[C@H]2CC[C@@H]3[C@H]2C(C)(C)CCC[C@]13C [Longifolene]
growth of Clostridium perfringens (0.3 ppm sesquiterpene): + | growth of Clostridium perfringens (1.2 ppm sesquiterpene): − | growth of Clostridium perfringens (2 ppm sesquiterpene): − | growth of Clostridium perfringens (10 ppm sesquiterpene): −

C=CC(C)(O)CCC=C(C)CCC=C(C)C (centres unmarked) [Nerolidol]
growth of Clostridium perfringens (2 ppm sesquiterpene): + | growth of Clostridium perfringens (10 ppm sesquiterpene): −

C=C1CC[C@@H]2[C@H]([C@@H]3[C@H](C)CC[C@H]13)C2(C)C [allo-aromadendrene]
growth of Clostridium perfringens (2 ppm sesquiterpene): − | growth of Clostridium perfringens (100 ppm sesquiterpene): −

CC(=O)O[C@]1(C)CC[C@@]23C[C@@H]1C(C)(C)[C@@H]2CC[C@H]3C [cedryl acetate]
growth of Clostridium perfringens (2 ppm sesquiterpene): − | growth of Clostridium perfringens (10 ppm sesquiterpene): −

CC(=O)OCC=C(C)CCC=C(C)CCC=C(C)C [farnesyl acetate]
growth of Clostridium perfringens (2 ppm sesquiterpene): − | growth of Clostridium perfringens (10 ppm sesquiterpene): −

CC(=O)CCC=C(C)CCC=C(C)CCC=C(C)C [farnesyl acetone]
growth of Clostridium perfringens (2 ppm sesquiterpene): − | growth of Clostridium perfringens (10 ppm sesquiterpene): −

CC(C)=CCC/C(C)=C/CC/C(C)=C/CO [trans-trans farnesol]
growth of Clostridium perfringens (2 ppm sesquiterpene): + | growth of Clostridium perfringens (10 ppm sesquiterpene): −

CC1=CC[C@@]23C[C@@H]1C(C)(C)[C@@H]2CC[C@H]3C [α-cedrene]
growth of Clostridium perfringens (1.2 ppm sesquiterpene): − | growth of Clostridium perfringens (2 ppm sesquiterpene): − | growth of Clostridium perfringens (10 ppm sesquiterpene): −

CC1=CC[C@H]2[C@H]3[C@@H]1[C@]2(C)CC[C@H]3C(C)C [α-copaene]
growth of Clostridium perfringens (0.5 ppm sesquiterpene): + | growth of Clostridium perfringens (1.2 ppm sesquiterpene): − | growth of Clostridium perfringens (100 ppm sesquiterpene): −

CC1=CC[C@@]23[C@@H]([C@@H]12)[C@H](C(C)C)CC[C@H]3C [α-cubebene]
growth of Clostridium perfringens (1.2 ppm sesquiterpene): − | growth of Clostridium perfringens (100 ppm sesquiterpene): −

C/C1=C\CC/C(C)=C/CC(C)(C)/C=C/C1 [α-humulene (α-caryophyllene)]
growth of Clostridium perfringens (0.3 ppm sesquiterpene): + | growth of Clostridium perfringens (0.4 ppm sesquiterpene): + | growth of Clostridium perfringens (1.2 ppm sesquiterpene): − | growth of Clostridium perfringens (2 ppm sesquiterpene): − | growth of Clostridium perfringens (10 ppm sesquiterpene): −

C=C1CC/C=C(\C)CC[C@@H]2[C@@H]1CC2(C)C [β-caryophyllene]
growth of Clostridium perfringens (0.2 ppm sesquiterpene): + | growth of Clostridium perfringens (1 ppm sesquiterpene): − | growth of Clostridium perfringens (2 ppm sesquiterpene): − | growth of Clostridium perfringens (100 ppm sesquiterpene): −

C=C1CC[C@@]23C[C@@H]1C(C)(C)[C@@H]2CC[C@H]3C [β-cedrene]
growth of Clostridium perfringens (1.2 ppm sesquiterpene): − | growth of Clostridium perfringens (2 ppm sesquiterpene): − | growth of Clostridium perfringens (10 ppm sesquiterpene): −

C=C1C/C=C/C(C)(C)C/C=C(\C)CCC1 [β-humulene]
growth of Clostridium perfringens (0.4 ppm sesquiterpene): + | growth of Clostridium perfringens (1.2 ppm sesquiterpene): −

C=C1C=CC(C)(C)CCCC(C)=CCC1 [γ-humulene]
growth of Clostridium perfringens (0.4 ppm sesquiterpene): +

(−) globulol
growth of Clostridium perfringens (0.5 ppm sesquiterpene): + | growth of Clostridium perfringens (2 ppm sesquiterpene): + | growth of Clostridium perfringens (10 ppm sesquiterpene): − | growth of Clostridium perfringens (100 ppm sesquiterpene): −

bisabolene/farnesene
growth of Clostridium perfringens (0.3 ppm sesquiterpene): + | growth of Clostridium perfringens (1.2 ppm sesquiterpene): − | growth of Clostridium perfringens (2 ppm sesquiterpene): − | growth of Clostridium perfringens (10 ppm sesquiterpene): −

cedrene-9-ol
growth of Clostridium perfringens (2 ppm sesquiterpene): + | growth of Clostridium perfringens (10 ppm sesquiterpene): +

α-bisabolol
growth of Clostridium perfringens (2 ppm sesquiterpene): +
